Test results published in article PMC7901646, “Pyrrolo[2′,3′:3,4]cyclohepta[1,2-d][1,2]oxazoles, a New Class of Antimitotic Agents Active against Multiple Malignant Cell Types” (Journal of Medicinal Chemistry, 2020).

Columns and labels:
HBL1 (ABC DLBCL) = experiment: MTT cell proliferation, lymphoma; assay type: cell-based; details: Homo sapiens, 72 h; for activity at 1 µM: of untreated cells, read-out: Proliferating cells (%); for IC50: MTT
Method: (§1) All compounds were further tested at the concentration of 1 μM on four cell lines derived from distinct lymphoma histotypes, plus two with secondary resistance to the PI3Kδ inhibitor idelalisib[51] or to the BTK inhibitor ibrutinib.[52] […] For comparison, the same experiments were conducted using compound 3, but the response to it was minimal, and thus it was not considered further.
(§2) Established human cell lines derived from germinal center B-cell (GCB) (SU-DHL-10), activated B-cell (ABC) (HBL1) diffuse large B-cell lymphoma (DLBCL), mantle cell lymphoma (MCL) (MINO), splenic marginal zone lymphoma (SMZL) (parental VL51, VL51 idelalisib resistant clone, VL51 ibrutinib resistant clone) were cultured in culture RPMI-1640 media supplemented with fetal bovine serum (10%), penicillin–streptomycin–neomycin (∼5,000 units of penicillin, 5 mg of streptomycinm and 10 mg of neomycin/mL, Sigma), and L-glutamine (1%). Vincristine sulfate was purchased from Sigma-Aldrich. Cell line identities were confirmed by CellCheck test (IDEXX, BioResearch, Ludwigsburg, Germany). All compounds were dissolved in dimethyl sulfoxide to obtain a stock concentration of 10 mM.
(§3) The antiproliferative activity of all compounds was assessed by using the 3-(4.5-dimethylthiazolyl-2)-2,5-diphenyltetrazolium bromide (MTT) test. Cells were seeded in 96-well plates (nontissue culture treated) at a density of 1 × 10^5 cells/mL and treated with a single concentration of 1 μM for 72 h. […] In this case, cells were treated in triplicate with serially diluted compounds in the appropriate tissue culture medium at a range of 40–10 000 nM. Cells were incubated for 72 h at 37 °C, 5% CO2. Wells containing medium only were included on each plate and served as blanks for absorbance readings. MTT (Sigma, Buchs, Switzerland) was prepared as a 5 mg/mL stock solution in phosphate buffered saline (PBS) and filter-sterilized. MTT solution (22 μL) was added to each well, and tissue culture plates were incubated at 37 °C for 4 h. Cells were then lysed with 25% sodium dodecyl sulfate lysis buffer, and absorbance was read at 570 nm using a Beckman Coulter-AD340 plate reader.

MINO (MCL) = experiment: MTT cell proliferation, lymphoma; assay type: cell-based; details: Homo sapiens, 72 h; for activity at 1 µM: of untreated cells, read-out: Proliferating cells (%); for IC50: MTT
Method: as §1, §2, §3

SU-DHL-10 (GCB DLBCL) = experiment: MTT cell proliferation, lymphoma; assay type: cell-based; details: Homo sapiens, SU-DHL10, 72 h; for activity at 1 µM: of untreated cells, read-out: Proliferating cells (%); for IC50: MTT
Method: as §1, §2, §3

VL51 (MZL) = experiment: MTT cell proliferation, lymphoma; assay type: cell-based; details: Homo sapiens, 72 h; for activity at 1 µM: of untreated cells, read-out: Proliferating cells (%); for IC50: MTT
Method: as §1, §2, §3

VL51 ibrutinib-resistant = experiment: MTT cell proliferation, lymphoma; assay type: cell-based; details: Homo sapiens, 72 h, of untreated cells, read-out: Proliferating cells (%)
Method: as §1, §2, §3

[1] = tested on: VL51 idelalisib-resistant; experiment: MTT cell proliferation, lymphoma; assay type: cell-based; details: Homo sapiens, 72 h, of untreated cells, read-out: Proliferating cells (%)
Method: as §1, §2, §3

bovine brain tubulin = bovine brain tubulin (Bos taurus, UniProt P81947+Q6B856); experiment: Inhibition of tubulin assembly (turbidimetry); assay type: biochemical; details: 9 μM (0.9 mg/mL) tubulin, 20 min at 30 °C; read-out: inhibition of tubulin assembly IC50 ± SD
tubulin colchicine site = tubulin colchicine site (Bos taurus, UniProt P81947+Q6B856); experiment: Inhibition of [3H]colchicine binding to tubulin; details: read-out: inhibition of colchicine binding % inhibition ± SD
Sequence of tubulin colchicine site (Q6B856 whole entry): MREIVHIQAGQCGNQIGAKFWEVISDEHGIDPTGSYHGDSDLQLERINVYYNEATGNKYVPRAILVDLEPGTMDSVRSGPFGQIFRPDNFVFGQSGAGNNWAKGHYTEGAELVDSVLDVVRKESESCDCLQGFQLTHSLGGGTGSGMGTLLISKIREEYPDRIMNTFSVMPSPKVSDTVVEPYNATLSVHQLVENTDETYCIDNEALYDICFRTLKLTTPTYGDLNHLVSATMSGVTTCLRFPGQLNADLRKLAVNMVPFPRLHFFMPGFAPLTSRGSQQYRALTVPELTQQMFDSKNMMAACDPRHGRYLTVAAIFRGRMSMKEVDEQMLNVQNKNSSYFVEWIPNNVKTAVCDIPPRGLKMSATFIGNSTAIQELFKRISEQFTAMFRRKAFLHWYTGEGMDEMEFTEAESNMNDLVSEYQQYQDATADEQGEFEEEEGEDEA
Sequence of tubulin colchicine site (P81947 whole entry): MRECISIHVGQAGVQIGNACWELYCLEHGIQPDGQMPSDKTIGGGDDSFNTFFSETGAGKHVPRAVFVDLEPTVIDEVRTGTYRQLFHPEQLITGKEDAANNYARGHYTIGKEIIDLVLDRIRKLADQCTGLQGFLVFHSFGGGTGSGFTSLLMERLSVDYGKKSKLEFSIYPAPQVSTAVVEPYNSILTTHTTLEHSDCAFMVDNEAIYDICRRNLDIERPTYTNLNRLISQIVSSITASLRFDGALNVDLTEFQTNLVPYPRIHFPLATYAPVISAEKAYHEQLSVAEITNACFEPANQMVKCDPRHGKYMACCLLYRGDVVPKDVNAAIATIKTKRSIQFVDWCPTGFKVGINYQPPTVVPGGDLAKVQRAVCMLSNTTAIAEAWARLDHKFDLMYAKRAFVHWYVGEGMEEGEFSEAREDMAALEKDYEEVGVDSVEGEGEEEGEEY
Method: Reaction mixtures in the assembly assay contained 9 μM (0.9 mg/mL) tubulin in the assembly assay, and in the colchicine assay they contained 0.5 μM tubulin, 5.0 μM [^3H]colchicine, and 5.0 μM inhibitor.
Analysis of effects on tubulin polymerization was performed by turbidimetry at 350 nm in recording spectrophotometers equipped with electronic temperature controllers as described in detail elsewhere.[71] […] The binding of [^3H]colchicine to tubulin was perfomed as described in detail previously[72] except that the tubulin concentration was reduced from 0.1 mg/mL to 0.05 mg/mL and only one, instead of two, DEAE-cellulose filter was used for each reaction mixture.

Sequence of bovine brain tubulin (Q6B856 whole entry): as the sequence (Q6B856 whole entry) above
Sequence of bovine brain tubulin (P81947 whole entry): as the sequence (P81947 whole entry) above

SMILES | activity at 1 µM (HBL1 (ABC DLBCL)) [%] | activity at 1 µM (MINO (MCL)) [%] | activity at 1 µM (SU-DHL-10 (GCB DLBCL)) [%] | activity at 1 µM (VL51 (MZL)) [%] | activity at 1 µM (VL51 ibrutinib-resistant) [%] | activity at 1 µM [1] [%] | IC50 (HBL1 (ABC DLBCL)) [nM] | IC50 (MINO (MCL)) [nM] | IC50 (SU-DHL-10 (GCB DLBCL)) [nM] | IC50 (VL51 (MZL)) [nM] | IC50 (bovine brain tubulin) [nM] | inhibition at 5 µM (tubulin colchicine site) [%]
CCOC(=O)c1cc2c(n1C)-c1oncc1CCC2 [Compound 60, Ethyl 9-Methyl-4,5,6,9-tetrahydropyrrolo[2′,3′:3,4]cyclohepta[1,2-d][1,2]oxazole-8-carboxylate] | 146 | 112 | 61.7 | 108 | 125 | 115 | – | – | – | – | – | –
CCOC(=O)c1c(Cl)c2c(n1Cc1cc(OC)ccc1OC)-c1oncc1CCC2 [Compound 74, Ethyl 7-Chloro-9-(2,5-dimethoxybenzyl)-4,5,6,9-tetrahydropyrrolo[2′,3′:3,4]cyclohepta[1,2-d][1,2]oxazole-8-carboxylate] | 29 | 9.8 | 13.3 | 40.4 | 44.4 | 37.7 | 1000 | 800 | 700 | 500 | – | –
COc1cc(Cn2ccc3c2-c2oncc2CCC3)cc(OC)c1OC [Compound 59, 9-(3,4,5-Trimethoxybenzyl)-4,5,6,9-tetrahydropyrrolo[2′,3′:3,4]cyclohepta[1,2-d][1,2]oxazole] | 114 | 99 | 94.6 | 97.6 | 92.1 | 112 | – | – | – | – | – | –
COc1cccc(Cn2ccc3c2-c2oncc2CCC3)c1 [Compound 55, 9-(3-Methoxybenzyl)-4,5,6,9-tetrahydropyrrolo[2′,3′:3,4]cyclohepta[1,2-d][1,2]oxazole] | 127 | 115 | 80.3 | 112 | 125 | 133 | – | – | – | – | – | –
COc1ccc(Cn2ccc3c2-c2oncc2CCC3)cc1 [Compound 56, 9-(4-Methoxybenzyl)-4,5,6,9-tetrahydropyrrolo[2′,3′:3,4]cyclohepta[1,2-d][1,2]oxazole] | 123 | 109 | 74.6 | 110 | 110 | 127 | – | – | – | – | 8200 ± 500 | –
CCOC(=O)c1c(Cl)c2c(n1Cc1ccccc1OC)-c1oncc1CCC2 [Compound 71, Ethyl 7-Chloro-9-(2-methoxybenzyl)-4,5,6,9-tetrahydropyrrolo[2′,3′:3,4]cyclohepta[1,2-d][1,2]oxazole-8-carboxylate] | 97 | 55.9 | 58.2 | 58.8 | 56.2 | 52.2 | > 5000 | 3400 | 2200 | 2400 | – | –
COc1ccccc1Cn1ccc2c1-c1oncc1CCC2 [Compound 54, 9-(2-Methoxybenzyl)-4,5,6,9-tetrahydropyrrolo[2′,3′:3,4]cyclohepta[1,2-d][1,2]oxazole] | 122 | 112 | 141 | 120 | 112 | 136 | – | – | – | – | – | –
CCOC(=O)c1c(Cl)c2c(n1Cc1cccc(OC)c1)-c1oncc1CCC2 [Compound 72, Ethyl 7-Chloro-9-(3-methoxybenzyl)-4,5,6,9-tetrahydropyrrolo[2′,3′:3,4]cyclohepta[1,2-d][1,2]oxazole-8-carboxylate] | 105 | 110 | 76.9 | 107 | 103 | 128 | – | – | – | – | – | –
CCOC(=O)c1cc2c(n1Cc1cc(OC)ccc1OC)-c1oncc1CCC2 [Compound 65, Ethyl 9-(2,5-Dimethoxybenzyl)-4,5,6,9-tetrahydropyrrolo[2′,3′:3,4]cyclohepta[1,2-d][1,2]oxazole-8-carboxylate] | 111 | 107 | 71.6 | 86.2 | 94 | 96.4 | – | – | – | – | – | –
O=S(=O)(c1ccccc1)n1ccc2c1-c1oncc1CCC2 [Compound 51, 9-(Phenylsulfonyl)-4,5,6,9-tetrahydropyrrolo[2′,3′:3,4]cyclohepta[1,2-d][1,2]oxazole] | 118 | 104 | 110 | 88.1 | 121 | 118 | – | – | – | – | – | –
CCOC(=O)c1cc2c(n1Cc1ccccc1)-c1oncc1CCC2 [Compound 61, Ethyl 9-Benzyl-4,5,6,9-tetrahydropyrrolo[2′,3′:3,4]cyclohepta[1,2-d][1,2]oxazole-8-carboxylate] | 124 | 106 | 65.2 | 93.3 | 118 | 117 | – | – | – | – | – | –
CCOC(=O)c1c(Cl)c2c(n1Cc1ccc(OC)cc1)-c1oncc1CCC2 [Compound 73, Ethyl 7-Chloro-9-(4-methoxybenzyl)-4,5,6,9-tetrahydropyrrolo[2′,3′:3,4]cyclohepta[1,2-d][1,2]oxazole-8-carboxylate] | 107 | 99.5 | 87.4 | 113 | 102 | 126 | – | – | – | – | – | –
Cn1ccc2c1-c1oncc1CCC2 [Compound 52, 9-Methyl-4,5,6,9-tetrahydropyrrolo[2′,3′:3,4]cyclohepta[1,2-d][1,2]oxazole] | 101 | 104 | 70.2 | 87.4 | 100 | 107 | – | – | – | – | – | –
CCOC(=O)c1cc2c(n1Cc1ccc(OC)cc1)-c1oncc1CCC2 [Compound 64, Ethyl 9-(4-Methoxybenzyl)-4,5,6,9-tetrahydropyrrolo[2′,3′:3,4]cyclohepta[1,2-d][1,2]oxazole-8-carboxylate] | 125 | 112 | 66.3 | 87.4 | 102 | 116 | – | – | – | – | – | –
c1ccc(Cn2ccc3c2-c2oncc2CCC3)cc1 [Compound 53, 9-Benzyl-4,5,6,9-tetrahydropyrrolo[2′,3′:3,4]cyclohepta[1,2-d][1,2]oxazole] | 109 | 109 | 70.2 | 103 | 125 | 128 | – | – | – | – | – | –
COc1ccc(/C=C\c2cc(OC)c(OC)c(OC)c2)cc1O [CA-4, combretastatin A-4, reference compound] | – | – | – | – | – | – | – | – | – | – | – | 97 ± 0.9
COc1ccc(OC)c(Cn2ccc3c2-c2oncc2CCC3)c1 [Compound 57, 9-(2,5-Dimethoxybenzyl)-4,5,6,9-tetrahydropyrrolo[2′,3′:3,4]cyclohepta[1,2-d][1,2]oxazole] | 29.6 | 8.5 | 11 | 36.5 | 37 | 34.3 | 600 | 400 | 300 | 200 | 3200 ± 60 | 38 ± 0.7
CCOC(=O)c1c(Cl)c2c(n1C)-c1oncc1CCC2 [Compound 69, Ethyl 7-Chloro-9-methyl-4,5,6,9-tetrahydropyrrolo[2′,3′:3,4]cyclohepta[1,2-d][1,2]oxazole-8-carboxylate] | 103 | 116 | 78.5 | 93.8 | 110 | 121 | – | – | – | – | – | –
COC(=O)c1cc2c(n1Cc1ccccc1)-c1oncc1CCC2 [Compound 68, Methyl 9-Benzyl-4,5,6,9-tetrahydropyrrolo[2′,3′:3,4]cyclohepta[1,2-d][1,2]oxazole-8-carboxylate] | 109 | 98.8 | 78.9 | 94.5 | 120 | 123 | – | – | – | – | – | –
